In publication PMC2603313, “Direct Inhibition of GSK3β by the Phosphorylated Cytoplasmic Domain of LRP6 in Wnt/β-Catenin Signaling” (PLoS ONE, 2008):
Each block holds one molecule with its values, some of them ahead of it. Square brackets hold non-standard residues; d marks the D form. Ends that are not written are not given here. pT = C[C@@H](OP(=O)(O)O)[C@H](N)C(=O)O; pS = N[C@@H](COP(=O)(O)O)C(=O)O

Columns and labels:
Xenopus embryos = assay: Microinjection into Xenopus embryos, second body axis formation; assay type: in vivo, Xenopus laevis; conditions: peptide 1 ng co-injected with XWnt8 0.5 pg
Excerpt: It is well established that Wnt signaling reduces GSK3β activity during development of the Xenopus embryo [24], and that the suppressed activity of GSK3β induces a second body axis in the Xenopus embryo in the response to Wnt. To examine the in vivo effect of the PPPSPxS motif on Wnt/β-catenin signaling, we injected the synthetic peptides into Xenopus embryos, along with a small amount of Xenopus Wnt8 that is insufficient to induce second body axis formation on its own. […] It is likely that a slight reduction in the GSK3β activity due to the activity of the exogenous Wnt on the endogenous LRP6/5 is required for the peptide to cause a sufficient inhibition of GSK3β to trigger Wnt/β-catenin signaling. Moreover, even if the amount of peptide injected is well above physiological concentrations, the effect is specific to the phosphorylated peptide.
Figure 3 The effect of the injected PPPSPxS peptides to the Xenopus embryos. Xenopus Wnt8 protein (XWnt8; 0.5 pg) was co-microinjected with each peptide (1 ng) into the ventrovegetal region of Xenopus embryos. […]
Xenopus laevis was purchased from Xenopus I and Nasco. […] In vitro fertilization was performed as described previously, and the developmental stages of the embryos were determined according to Nieuwkoop and Faber. […]

GSK3β [1] = target: T1, GSK3β (Mus musculus, UniProt Q9WV60); assay: In vitro GSK3β activity assay with synthetic peptides (phosphorylation of primed β-catenin N-terminal fragment); assay type: biochemical; conditions: primed β-catenin N-terminal fragment 7 µM, 1 mM ATP, pH 8.0, 30 min at 37°C, 4–7 independent experiments
T1 construct: The catalytic domains of mouse GSK3β (residues 27–393) and CK1ε (residues 1–319) were expressed and purified; made in house
Excerpt: We synthesized one dually-phosphorylated (NPPPpSPApTERSH, where pS or pT designates a phosphorylated Ser or Thr residue), two singly-phosphorylated (NPPPSPApTERSH and NPPPp[…]) and one non-phosphorylated ([…]) peptides derived from the first PPPSPxS motif of LRP6 (Fig. 1A). To measure the GSK3β activity toward β-catenin in vitro, we utilized a β-catenin N-terminal fragment (residues 1–133), whose Ser45 was prephosphorylated by CK1, as a substrate (Ha et al., 2004). Each synthetic peptide was added to a reaction mixture containing the purified GSK3β enzyme and the substrate β-catenin N-terminal fragment. The GSK3β activity was determined through measurement of the intensity of the supershifted (retarded) β-catenin bands (Fig. S3), which represent the phosphorylated product species (Fig. S4), on an SDS-polyacrylamide gel (Figs. S3, S4, S5, S6, S7). […] This corresponds well with the results of Zeng et al., who reported that the first Ser residue in the PPPSPxS motif has a more important role in Wnt/β-catenin signaling than the second Ser residue.
The catalytic domains of mouse GSK3β (residues 27–393) and CK1ε (residues 1–319) were expressed and purified as previously described. The N-terminal region (residues 1–133) of β-catenin was expressed in Escherichia coli as a GST-fusion protein with a TEV protease cleavage site and then purified using Glutathione-agarose. Subsequently, the GST tag was cleaved using recombinant TEV protease and was removed by repeated HiTrapQ anion-exchange chromatography. The N-terminal region of β-catenin was then phosphorylated by incubation with the catalytic domain of CK1ε (0.28 mg/ml) at 37°C for 20 min in 50 mM Tris buffer (pH 8.0) containing 10 mM MgCl2, 10 mM 2-mercaptoethanol, and 2 mM phenylmethylsulfonylfluoride. The phosphorylated β-catenin fragment was then further purified using HiTrapQ anion-exchange chromatography to remove the CK1ε enzyme. […]

GSK3β and CK1 = assay: Phosphorylation of GST-fusion proteins by GSK3β and CK1; assay type: biochemical; conditions: data not shown
[2] = target: catalytic domain of mouse GSK3β (residues 27–393) (mouse) (UniProt Q9WV60)
[3] = target: GSK3β catalytic domain, 27-393 (UniProt Q9WV60); assay: inhibition of GSK3β kinase activity, band shift; conditions: reference: non-phosphorylated peptide …; sites S1490
GSK3β [4] = conditions: toward full-length β-catenin; cited from earlier work
Description: We next sought to determine if the phosphorylated LRP6 motifs are capable of inhibiting GSK3β in the Axin complex. An in vitro kinase assay with Axin-bound GSK3β was performed by adding the purified GSK3β binding domain (GBD) of Axin to the reaction mixture.

[5] = target: T2, catalytic domain of mouse GSK3β (residues 27–393) (mouse, UniProt Q9WV60 27-393); assay: steady-state kinetics of enzyme inhibition (GSK3β kinase assay, band shift on SDS-PAGE); apparent Ki; 50 mM Tris pH 8.0, 10 mM MgCl2, 10 mM 2-mercaptoethanol, 1 mM ATP, 8 ng GSK3β catalytic domain, 6 µM primed β-catenin N-terminal fragment (1-133), 37°C; peptide 0, 1, 3, 10, 30 µM; (V0/Vi)−1 = [peptide]/Ki; conditions: both partners purified
T2 construct: GSK3β (glycogen synthase kinase 3 beta), mouse, catalytic domain, residues 27-393; also called recombinant GSK3β catalytic domain; source: recombinant, expressed and purified as previously described [32]

[6] = target: T2, catalytic domain of mouse GSK3β …; assay: far-Western, overlay or dot blot; 15 µg GST-miniCL on PVDF; membrane incubated with GSK3β (2 µg/ml) and/or His-Axin (12 µg/ml) in TBST containing 1% skim milk; conditions: both partners purified

Molecule: NPPPSPATERSH [PPPSPxS, non-phosphorylated peptide derived from the first PPPSPxS motif of LRP6]
- Induction of second body axis (Xenopus embryos): did not
- Inhibitory effect on GSK3β activity toward β-catenin (GSK3β [1]; at concentrations up to 100 µM): did not show any inhibitory effect on the GSK3β activity

Molecule: NPPPpSPATERSH [PPP(p)SPxS, singly-phosphorylated peptide (first Ser/Thr) derived from the first PPPSPxS motif of LRP6]
- Induction of second body axis (Xenopus embryos): induced the second body axis with an efficiency comparable to that of the dually-phosphorylated peptide
- Inhibitory effect on GSK3β activity toward β-catenin (GSK3β [1]; at 100 µM): strong inhibitory effect close to that of the dually-phosphorylated peptide

Molecule: GST-PPPSPxS: GST-fused LRP6 PPPSPxS, residues 1485–1497 (LNPPPSPATERSH; also: GST-fused, end not given here)
- Phosphorylation by GSK3β and CK1 (GSK3β and CK1): not phosphorylated

- inhibition of in vitro GSK3β activity at above 2.5 µM of GST-Axin GBD [2]: 20%
Molecule: GST-fused mouse Axin GBD (GSK3β binding domain, residues 512–530) (domain or fragment)

- binding against the reference [3]: gained
Molecule: LRP6 (from UniProt O75581) pS1490 peptide NPPPpSPATERSH

Molecule: full-length Axin: full-length Axin scaffold protein
- Effect on GSK3β activity (GSK3β [4]): increases GSK3β activity

Molecule: GST-PPPAPxS: GST-fused LRP6 PPPAPxS, residues 1485–1497 with the substitution at Ser1490 (LNPPPAPATERSH; also: GST-fused, end not given here)
- Phosphorylation by GSK3β and CK1 (GSK3β and CK1): not phosphorylated

- Ki [5]: 13 µM
B1: dually-phosphorylated LRP6 PPPSPxS peptide (NPPPpSPApTERSH) (peptide)
peptide: {biotin (sulfo-NHS-SS-biotin)}-NPPP[pS]PA[pT]ERSH-NH2
notes: LRP6, first PPPSPxS motif; The biotin is joined by a disulfide that can be cut by reduction; the kinase buffer holds 10 mM 2-mercaptoethanol; also called PPP(p)SPx(p)S; dually-phosphorylated peptide; source: synthetic peptide (solid-phase synthesis)

- binding result [6]: binds
B2: GST-fused LRP6 miniCL (residues 1470–1510 of human LRP6), not phosphorylated (domain or fragment, UniProt O75581 1470-1510, looked up)
chain: SSSSSSTKGTYFPAILNPPPSPATERSHYTMEFGYSSNSPS
modifications: also: GST fusion (GST left off)
notes: LRP6, human, intracellular fragment miniCL, residues 1470-1510 (Ser/Thr rich cluster and first PPPSPxS motif); also called GST-miniCL; LRP6 miniCL region; source: E. coli, purified (Glutathione-agarose, HiTrapQ)
